Source: US20230027198A1 (The Rockefeller University, priority 2019, published 2023)

How the values were obtained:
[1] = molecular target: T1, ENL YEATS domain (6×HIS ENL YEATS Domain) binding to H3K9cr peptide (Homo sapiens, UniProt Q03111); assay: TR-FRET ENL Screening Assay, FRET Assay Protocol 1; details: H3K9cr peptide (aa1-20)
T1 construct: aa1-150; EpiCypher, 15-0069; purchased EpiCypher 15-0069
T1 sequence (Q03111 1-150): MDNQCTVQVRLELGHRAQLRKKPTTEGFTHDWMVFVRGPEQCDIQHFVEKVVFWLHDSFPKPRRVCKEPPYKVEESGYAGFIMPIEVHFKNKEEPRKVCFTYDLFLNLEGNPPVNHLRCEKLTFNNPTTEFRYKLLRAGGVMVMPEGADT
Description: Compounds of the invention were dissolved in DMSO at a concentration of 3 mM with subsequent dilutions in assay buffer (50 mM HEPES PH7.0, 150 mM NaCl, 0.05% BSA, 0.2% Pluronic F-127) such that the assay contained 1% DMSO. […] Low control (LC) wells received 5 uL of assay buffer instead of ENL protein. […] Compound concentration response curves were performed in duplicate over the concentration range of 0.15 nM-30 uM. The response at each compound concentration minus the LC value was converted to percent inhibition of the vehicle control group response (HC-LC). The relationship between the % inhibition and the compound concentration was analyzed using a four parameter logistic equation to estimate lower and upper asymptotes, the compound concentration producing 50% inhibition (IC50 value) and the slope at the mid-point location.

[2] = test system: MV4-11 cells; assay: Cell viability assay (CellTiter-Glo), 12 days; assay type: cell-based; details: Homo sapiens, readouts on days 4, 8 and 12, day not given
Description: Cell-based assays were used to assess the ability of test compounds to reduce cell viability in both MV4:11 (MLL-AF4 MLL) and K562 cells, which were cultured in Iscove's Modified Dulbecco's medium (Gibco, 12440061) containing […]. The assays were conducted over 12 days and the cells being split on days 4 and 8. Compound concentration response curves were performed in duplicate over the concentration range of 0.15 nM-30 uM. On day 0, the compounds or vehicle were plated in a 300 nL directly into 96 well cell culture plates (Corning, 3599) with 5000 cells/well in a volume of 100 uL. Blank wells received cell culture medium. Plates were incubated for 4 days at 37° C. with 5% CO2. On days 4 and day 8 the cells were split and incubated for a further 4 days whilst an aliquot of cells were taken for the CTG readout. For the cell splitting, 270 nL of compounds or DMSO was added to a new 96 well cell culture plate to which 90 uL of medium plus 10 uL of cells from the original assay plate (after mixing) or 100 uL of medium (Blank wells) was added. This was repeated on day 8.
Cell viability was assessed using the CellTiter-Glo® homogeneous luminescent assay kit (Promega, G9243), according to the manufacturer's instructions. This quantifies ATP, which indicates the presence of metabolically active cells. On days 4, 8 and 12, 20 ul of the remaining cell suspension was aspirated into 384-well plate (Corning 3570) to which an equal volume CellTiter-Glo reagent was. Plates were incubated for 10 minute incubation at RT prior to recording the luminescence signal using EnVision plate reader (PE, 2104). The resulting data were analyzed as follows:
Inhibition (%)=100%×(Lumvehicie−Lumsample)/(Lumvehicle−Lumblank)
where vehicle are cells treated with 0.3% DMSO, Blank is culture medium. IC50 determinations were calculated by fitting the curve using XLfit (v5.3.1.3): Y=Bottom+(Top−Bottom)/(1+10^((Log IC50−X)*HillSlope)).

Compound | IC50 [1] | IC50 [2]
COCCNc1nn(C)c2cc(C(=O)Nc3cc4[nH]c(CN5CCC[C@@H]5C)cc4cn3)ccc12 [Example 94, 3-[(2-methoxyethyl)amino]-1-methyl-N-(2-[[(2S)-2-methylpyrrolidin-1-yl]methyl]-1H-pyrrolo[3,2-c]pyridin-6-yl)indazole-6-carboxamide] | 118 nM | 0.365 µM
COCCn1cc(-c2ccc(C(=O)Nc3cc4[nH]c(CN5CCC[C@@H]5C)cc4cn3)cc2)cn1 [Example 51] | 187 nM | 0.077 µM
Cc1ccc2cc(C(=O)Nc3cc4[nH]c(CN5CCC[C@@H]5C)cc4cn3)ccc2n1 [Example 22] | 139 nM | 0.127 µM
Cc1n[nH]c2cc(C(=O)Nc3cc4[nH]c(CN5CCC[C@@H]5C)cc4cn3)ccc12 [Example 67] | 125 nM | 0.149 µM
C[C@H]1CCCN1Cc1cc2cnc(NC(=O)c3ccc4c(c3)[nH]c(=O)n4C)cc2[nH]1 [Example 93] | 97 nM | 0.181 µM
C[C@H]1CCCN1Cc1cc2cnc(NC(=O)c3ccc4cnn(C)c4c3)cc2[nH]1 [Example 7] | 298 nM | 0.173 µM
C[C@H]1CCCN1Cc1cc2cnc(NC(=O)c3ccc4c(N)nn(C)c4c3)cc2[nH]1 [Example 60] | 330 nM | 0.182 µM
C[C@H]1CCCN1Cc1cc2cnc(NC(=O)c3ccc(-c4ccn(C)n4)cc3F)cc2[nH]1 [Example 32] | 1400 nM | 0.455 µM
CNc1cc2ccc(C(=O)Nc3cc4[nH]c(CN5CCC[C@@H]5C)cc4cn3)cc2cn1 [Example 97] | 572 nM | 0.321 µM
C[C@H]1CCCN1Cc1cc2cnc(NC(=O)c3ccc(-c4cnn(C)c4)cc3)cc2[nH]1 [Example 21, 4-(1-methylpyrazol-4-yl)-N-(2-[[(2S)-2-methylpyrrolidin-1-yl]methyl]-1H-pyrrolo[3,2-c]pyridin-6-yl)benzamide] | 250 nM | 0.301 µM
C[C@H]1CCCN1Cc1cc2cnc(NC(=O)c3ccc4oc(=O)[nH]c4c3)cc2[nH]1 [Example 24, N-(2-[[(2S)-2-methylpyrrolidin-1-yl]methyl]-1H-pyrrolo[3,2-c]pyridin-6-yl)-2-oxo-3H-1,3-benzoxazole-5-carboxamide] | 1090 nM | 1.46 µM
Cc1noc2cc(C(=O)Nc3cc4[nH]c(CN5CCC[C@@H]5C)cc4cn3)ccc12 [Example 1, (S)-3-methyl-N-(2-((2-methylpyrrolidin-1-yl)methyl)-1H-pyrrolo[3,2-c]pyridin-6-yl)benzo[d]isoxazole-6-carboxamide] | 143 nM | 0.057 µM
C[C@H]1CCCN1Cc1cc2cnc(NC(=O)c3ccc4c(c3)CNC(=O)N4C)cc2[nH]1 [Example 98] | 330 nM | 1.06 µM
C[C@H]1CCCN1Cc1cc2cnc(NC(=O)c3ccc4c(CO)nccc4c3)cc2[nH]1 [Example 66] | 85 nM | 0.094 µM
C[C@H]1CCCN1Cc1cc2cnc(NC(=O)c3ccc4c(C(F)F)nn(C)c4c3)cc2[nH]1 [Example 55] | 116 nM | 0.058 µM
C[C@H]1CCCN1Cc1cc2cnc(NC(=O)c3ccc4[nH]nc(C5CC5)c4c3)cc2[nH]1 [Example 48] | 140 nM | 0.057 µM
Cn1ncc2cc(C(=O)Nc3cc4[nH]c(CN5CC6(COC6)C5)cc4cn3)ccc21 [Example 46] | 306 nM | 1.22 µM
Cc1ncc2cc(C(=O)Nc3cc4[nH]c(CN5CCC[C@@H]5C)cc4cn3)ccn12 [Example 99, 3-methyl-N-(2-[[(2S)-2-methylpyrrolidin-1-yl]methyl]-1H-pyrrolo[3,2-c]pyridin-6-yl)imidazo[1,5-a]pyridine-7-carboxamide] | 186 nM | 0.468 µM
Cc1nn(C)c2cc(C(=O)Nc3cc4[nH]c(CN5CCC[C@@H]5C)cc4cn3)ccc12 [Example 5] | 125 nM | 0.022 µM
Cn1ncc2ccc(C(=O)Nc3cc4[nH]c(CN5CC6(CCOCC6)C5)cc4cn3)cc21 [Example 104] | 210 nM | 0.22 µM

Compound | IC50 [1] | IC50 [2]
C[C@H]1CCN1Cc1cc2cnc(NC(=O)c3ccc4[nH]nc(C5CC5)c4c3)cc2[nH]1 [Example 73, 3-cyclopropyl-N-(2-[[(2S)-2-methylazetidin-1-yl]methyl]-1H-pyrrolo[3,2-c]pyridin-6-yl)-1H-indazole-5-carboxamide] | 238 nM | 0.684 µM
C[C@H]1CCCN1Cc1cc2cnc(NC(=O)c3ccc(-c4cnn(C(F)F)c4)cc3)cc2[nH]1 [Example 50] | 158 nM | 0.1 µM
CNc1nn(C)c2cc(C(=O)Nc3cc4[nH]c(CN5CCC[C@@H]5C)cc4cn3)ccc12 [Example 85] | 176 nM | 0.183 µM
Cc1nn(C)c2ccc(C(=O)Nc3cc4[nH]c(CN5CCC[C@@H]5C)cc4cn3)cc12 [Example 6] | 133 nM | 0.061 µM
Cc1cc2cc(C(=O)Nc3cc4[nH]c(CN5CCC[C@@H]5C)cc4cn3)ccc2nn1 [Example 57] | 272 nM | 0.314 µM
C[C@H]1CCCN1Cc1cc2cnc(NC(=O)c3ccc(-c4cnn(CC#N)c4)cc3)cc2[nH]1 [Example 52] | 154 nM | 0.184 µM
C[C@H]1CCCN1Cc1cc2cnc(NC(=O)c3ccc4c(C5CC5)nn(C)c4c3)cc2[nH]1 [Example 56] | 78 nM | 0.044 µM
C[C@H]1CCCN1Cc1cc2cnc(NC(=O)c3ccc(-c4cnn(C)c4)cc3F)cc2[nH]1 [Example 34] | 227 nM | 0.122 µM
C[C@H]1CCCN1Cc1cc2cnc(NC(=O)c3ccc(-c4cnn(C5CC5)c4)cc3)cc2[nH]1 [Example 49] | 151 nM | 
COCC#CCn1ncc2cc(C(=O)Nc3cc4[nH]c(CN5CCC[C@@H]5C)cc4cn3)ccc21 [Example 27, 1-(4-methoxybut-2-yn-1-yl)-N-(2-[[(2S)-2-methylpyrrolidin-1-yl]methyl]-1H-pyrrolo[3,2-c]pyridin-6-yl)indazole-5-carboxamide] | 258 nM | 
CC(=O)Nc1nn(C)c2cc(C(=O)Nc3cc4[nH]c(CN5CCC[C@@H]5C)cc4cn3)ccc12 [Example 87, 3-acetamido-1-methyl-N-(2-[[(2S)-2-methylpyrrolidin-1-yl]methyl]-1H-pyrrolo[3,2-c]pyridin-6-yl)indazole-6-carboxamide] | 330 nM | 
C[C@H]1CCCN1Cc1cc2cnc(NC(=O)c3ccc(C(=N)N)cc3)cc2[nH]1 [Example 80] | 1900 nM | 
Cc1n[nH]c2ccc(C(=O)Nc3cc4[nH]c(CN5CCC[C@@H]5C)c(F)c4cn3)cc12 [Example 107, N-(3-fluoro-2-[[(2S)-2-methylpyrrolidin-1-yl]methyl]-1H-pyrrolo[3,2-c]pyridin-6-yl)-3-methyl-1H-indazole-5-carboxamide] | 94 nM | 
Cc1nn(C(F)F)c2ccc(C(=O)Nc3cc4[nH]c(CN5CCC[C@@H]5C)cc4cn3)cc12 [Example 102] | 276 nM | 
Cc1c2ccc(C(=O)Nc3cc4[nH]c(CN5CCC[C@@H]5C)cc4cn3)cc2nn1C [Example 8] | 245 nM | 
C[C@H]1CCCN1Cc1cc2cnc(NC(=O)c3cc4cnccc4cn3)cc2[nH]1 [Example 78] | 145 nM | 
C[C@H]1CCCN1Cc1cc2cnc(NC(=O)c3ccc(-c4cn[nH]c4)cn3)cc2[nH]1 [Example 77] | 963 nM | 
C[C@H]1CCCN1Cc1cc2cnc(NC(=O)c3ccc4[nH]nnc4c3)cc2[nH]1 [Example 79] | 511 nM | 
C[C@H]1CCCN1Cc1cc2cnc(NC(=O)c3ccc4c(c3)CCCN4C)cc2[nH]1 [Example 40, 1-methyl-N-(2-[[(2S)-2-methylpyrrolidin-1-yl]methyl]-1H-pyrrolo[3,2-c]pyridin-6-yl)-3,4-dihydro-2H-quinoline-6-carboxamide] | 2520 nM | 
Cc1cnnc(-c2ccc(C(=O)Nc3cc4[nH]c(CN5CCC[C@@H]5C)cc4cn3)c(F)c2)c1 [Example 36] | 669 nM | 
